In ChEMBL document CHEMBL3734724, “Anticancer efficacy of unique pyridine-based tetraindoles” (Eur J Med Chem, 2015):

Experiments:
MDA-MB-231 [1] = assay: Cell cycle arrest in human MDA-MB-231 cells assessed as accumulation at S phase at 0.4 uM after 48 hrs by propidium iodide staining-based flow cytometric analysis (reference value: 26 +/- 3%); type: functional
[2] = Cytotoxicity against human M10 cells assessed as growth inhibition after 48 hrs by MTT assay; type: cell-based; settings: M10, 48 h
MDA-MB-231 [3] = assay: Cell cycle arrest in human MDA-MB-231 cells assessed as accumulation at G0/G1 phase at 0.4 uM after 24 hrs by propidium iodide staining-based flow cytometric analysis (reference value: 57 +/- 6%); type: functional
MDA-MB-231 [4] = assay: Cell cycle arrest in human MDA-MB-231 cells assessed as accumulation at G0/G1 phase at 0.8 uM after 24 hrs by propidium iodide staining-based flow cytometric analysis (reference value: 57 +/- 6%); type: functional
[5] = Cytotoxicity against human M10 cells assessed as growth inhibition at 20 uM after 48 hrs by MTT assay relative to control; type: cell-based; settings: read-out: GI
MDA-MB-231 [6] = assay: Cell cycle arrest in human MDA-MB-231 cells assessed as accumulation at sub-G1 phase at 1.6 uM after 24 hrs by propidium iodide staining-based flow cytometric analysis relative to control; type: functional
MDA-MB-231 [7] = assay: Cell cycle arrest in human MDA-MB-231 cells assessed as accumulation at G0/G1 phase at 1.6 uM after 24 hrs by propidium iodide staining-based flow cytometric analysis (reference value: 57 +/- 6%); type: functional
MDA-MB-231 [8] = assay: Cell cycle arrest in human MDA-MB-231 cells assessed as accumulation at G0/G1 phase at 0.8 uM after 48 hrs by propidium iodide staining-based flow cytometric analysis (reference value: 57.8 +/- 0.7%); type: functional
MDA-MB-231 [9] = assay: Reduction of phospho-cdc2 (Tyr15) dephosphorylation in human MDA-MB-231 cells after 48 hrs by Western blot analysis; type: functional, cell-based
MDA-MB-231 [10] = assay: Induction of DNA damage in human MDA-MB-231 cells at 3.2 uM after 48 hrs by alkaline comet assay relative to control; type: functional
MDA-MB-231 [11] = assay: Cell cycle arrest in human MDA-MB-231 cells assessed as accumulation at G2/M phase at 1.6 uM after 24 hrs by propidium iodide staining-based flow cytometric analysis (reference value: 12 +/- 2%); type: functional
MDA-MB-231 [12] = assay: Cell cycle arrest in human MDA-MB-231 cells assessed as accumulation at S phase at 1.6 uM after 24 hrs by propidium iodide staining-based flow cytometric analysis (reference value: 32 +/- 4%); type: functional
MDA-MB-231 [13] = assay: Cell cycle arrest in human MDA-MB-231 cells assessed as accumulation at G0/G1 phase at 0.4 uM after 48 hrs by propidium iodide staining-based flow cytometric analysis (reference value: 57.8 +/- 0.7%); type: functional

Oc1ccc2[nH]cc(C(c3ccc(C(c4c[nH]c5ccc(O)cc45)c4c[nH]c5ccc(O)cc45)nc3)c3c[nH]c4ccc(O)cc34)c2c1
Activity (MDA-MB-231 [1]): 28%
IC50 [2]: > 20 µM
Activity (MDA-MB-231 [3]): 53%
Activity (MDA-MB-231 [4]): 54%
inhibition at 48 h, 20 µM [5]: 37%
Activity (MDA-MB-231 [6]): 16%
Activity (MDA-MB-231 [7]): 53%
Activity (MDA-MB-231 [8]): 49%
Activity (MDA-MB-231 [9]): Dose-dependent effect
fold change (FC) (MDA-MB-231 [10]): 12
Activity (MDA-MB-231 [11]): 20%
Activity (MDA-MB-231 [12]): 27%
Activity (MDA-MB-231 [13]): 54%
